Laboratory results from ChEMBL document CHEMBL3808309, “Interpreting the behavior of concentration-response curves of hyaluronidase inhibitors under DMSO-perturbed assay conditions” (Bioorg Med Chem Lett, 2016).
Active and inactive are the calls of the source. The calls are words filed in the database; no cut-off is given here.

Legend:
[1] = Inhibition of bovine testis hyaluronidase using hyaluronic acid as substrate preincubated for 20 mins followed by incubation with CaCl2 for 20 mins and substrate for 10 mins by colorimetric Morgan-Elson method; set-up: species or system Bos taurus
[2] = Inhibition of bovine testis hyaluronidase using hyaluronic acid as substrate preincubated with CaCl2 for 20 mins followed by incubation with compound for 20 mins and substrate for 10 mins by colorimetric Morgan-Elson method; set-up: species or system Bos taurus
[3] = Inhibition of bovine testis hyaluronidase using hyaluronic acid as substrate preincubated with CaCl2 for 20 mins followed by incubation with of compound for 20 mins and substrate for 10 mins by colorimetric Morgan-Elson method in presence of 0.05% triton X-100; set-up: species or system Bos taurus
[4] = Inhibition of bovine testis hyaluronidase using hyaluronic acid as substrate preincubated with CaCl2 for 20 mins followed by incubation with compound for 20 mins and substrate for 10 mins by colorimetric Morgan-Elson method in presence of BSA; set-up: species or system Bos taurus
[5] = species on record: Bos taurus; assay: Inhibition of bovine testis hyaluronidase preincubated with CaCl2 for 20 mins followed by incubation with compound for 20 mins and substrate for 10 mins by colorimetric Morgan-Elson method in presence of up to 21% DMSO
[6] = Inhibition of bovine testis hyaluronidase preincubated with CaCl2 for 20 mins followed by incubation with compound for 20 mins and substrate for 10 mins by colorimetric Morgan-Elson method in presence of urea; set-up: species or system Bos taurus
[7] = species on record: Bos taurus; assay: Ratio of IC50 for inhibition of bovine testis hyaluronidase preincubated with CaCl2 for 20 mins followed by addition of compound to IC50 for inhibition of bovine testis hyaluronidase preincubated for 20 mins followed by addition of CaCl2
[8] = species on record: Bos taurus; assay: Inhibition of bovine testis hyaluronidase using hyaluronic acid as substrate at 3000 uM preincubated with CaCl2 for 20 mins followed by incubation with compound for 20 mins and substrate for 10 mins by colorimetric Morgan-Elson method in presence of 0.05% triton X-100

Row | Compound | IC50 [1] [µM] | IC50 [2] [µM] | IC50 [3] [µM] | IC50 [4] [µM] | inhibition [5] | IC50 [6] [µM] | Ratio IC50 [7] | inhibition [8] [%]
1 | CCCCCCCCCCCCCCCC(=O)OC[C@H](O)C1OC(=O)C(O)=C1O (some centres not stated) | 23 | 47 | 480 | 240 | Active |  |  | 
2 | O=C(O)[C@H]1O[C@@H](Oc2cc3oc(-c4ccccc4)cc(=O)c3c(O)c2O)[C@H](O)[C@@H](O)[C@@H]1O [BAICALIN] | 450 | 1400 | 1000 | 1600 | inactive |  |  | 
3 | O=C(O)c1cc(=O)c2c(OCC(O)COc3cccc4oc(C(=O)O)cc(=O)c34)cccc2o1 [CROMOLYN SODIUM] | 330 | 1700 | 1700 | 1600 | inactive | 1600 |  | 
4 | CC1(C)[C@@H](O[C@H]2O[C@H](C(=O)O)[C@@H](O)[C@H](O)[C@H]2O[C@@H]2O[C@H](C(=O)O)[C@@H](O)[C@H](O)[C@H]2O)CC[C@]2(C)[C@H]3C(=O)C=C4[C@@H]5C[C@@](C)(C(=O)O)CC[C@]5(C)CC[C@@]4(C)[C@]3(C)CC[C@@H]12 [GLYCYRRHIZIN] | 8.5 | 29 | 40 | 61 | inactive | 31 | > 3 | 
5 | COc1ccc2c(c1)c(CC(=O)O)c(C)n2C(=O)c1ccc(Cl)cc1 [INDOMETHACIN] | 340 | 1400 |  | 2000 |  |  |  | < 50
